Laboratory results: ChEMBL document CHEMBL1201862, “PubChem BioAssay data set” (2004)
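Each compound was tested at five concentrations against cells in 96-well plates for 48 hours. At the GI50, growth is halved.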 Activity calls are given as the source filed them. No stated cut-off is given here; in the data, active = GI50 up to about 1.1 µM and inactive = higher.

How the values were obtained:
Test in all cases: NCI-60 cell line screen, 48 h
A549 = system: A549
CAKI-1 = system: CAKI-1
CCRF-CEM = system: CCRF-CEM
COLO 205 = system: COLO 205
EKVX = system: EKVX
HCC 2998 = system: HCC 2998
HCT-116 = system: HCT-116
HCT-15 = system: HCT-15
HT-29 = system: HT-29
IGROV-1 = system: IGROV-1
K562 = system: K562
OVCAR-3 = system: OVCAR-3
OVCAR-5 = system: OVCAR-5
OVCAR-8 = system: OVCAR-8
RPMI-8226 = system: RPMI-8226
SF-268 = system: SF-268
SK-MEL-5 = system: SK-MEL-5
SK-OV-3 = system: SK-OV-3
SNB-19 = system: SNB-19
UACC-257 = system: UACC-257

SMILES | GI50 (A549) | GI50 (CAKI-1) | GI50 (CCRF-CEM) | GI50 (COLO 205) | GI50 (EKVX) | GI50 (HCC 2998) | GI50 (HCT-116) | GI50 (HCT-15) | GI50 (HT-29) | GI50 (IGROV-1) | GI50 (K562) | GI50 (OVCAR-3) | GI50 (OVCAR-5) | GI50 (OVCAR-8) | GI50 (RPMI-8226) | GI50 (SF-268) | GI50 (SK-MEL-5) | GI50 (SK-OV-3) | GI50 (SNB-19) | GI50 (UACC-257)
COc1ccc2cc1Oc1ccc(cc1)C[C@H]1c3cc(c(OC)cc3CCN1C)Oc1c(O)c(OC)cc3c1[C@H](C2)N(C)CC3 [FANGCHINOLINE] | 31.5 µM (inactive) | 3.54 µM (inactive) | 24.3 µM (inactive) | 15.8 µM (inactive) | 4.45 µM (inactive) | 17.6 µM (inactive) | 13.3 µM (inactive) | 13.3 µM | 22.3 µM (inactive) | 27.1 µM (inactive) | 11.4 µM (inactive) | 21.6 µM (inactive) | 46.3 µM (inactive) | 5.25 µM (inactive) | 8.91 µM (inactive) | 30.2 µM (inactive) | 13.6 µM (inactive) | 28.4 µM (inactive) | 43.8 µM (inactive) | 9.48 µM (inactive)
CN(C(=O)c1ccc(OCCCC(=O)O)c(Cl)c1Cl)C1CCCC1 | > 100 µM (inactive) | > 28.6 µM (inactive) | > 100 µM (inactive) | > 100 µM (inactive) | > 100 µM (inactive) | > 100 µM (inactive) | > 62.8 µM (inactive) | > 100 µM | > 100 µM (inactive) | > 100 µM (inactive) | > 100 µM (inactive) | > 100 µM (inactive) | > 100 µM (inactive) | > 100 µM (inactive) | 98.6 µM (inactive) | > 96.4 µM (inactive) | > 100 µM (inactive) | > 100 µM (inactive) | > 100 µM (inactive) | > 100 µM (inactive)
Cc1ccc2c(O)cc(-c3cc(C)sc3C)nc2n1 | 3.94 µM (inactive) | 14.4 µM (inactive) | 2.53 µM (inactive) | 2.26 µM (inactive) | 10.8 µM (inactive) | 4.05 µM (inactive) | 3.84 µM (inactive) | 1.46 µM | 4.82 µM (inactive) | 3.36 µM (inactive) | 2.94 µM (inactive) | 3.5 µM (inactive) | 11.6 µM (inactive) | 3.91 µM (inactive) | 2.37 µM (inactive) | 6.04 µM (inactive) | 0.708 µM (active) | 3.77 µM (inactive) | 3.66 µM (inactive) | > 37.7 µM (inactive)
CCCCCc1cccc(=O)o1 | > 100 µM (inactive) | > 100 µM (inactive) | > 100 µM (inactive) | > 100 µM (inactive) | > 100 µM (inactive) | > 100 µM (inactive) | > 100 µM (inactive) | > 100 µM | > 100 µM (inactive) | > 100 µM (inactive) | > 100 µM (inactive) | > 100 µM (inactive) | > 100 µM (inactive) | > 100 µM (inactive) | > 100 µM (inactive) | > 100 µM (inactive) | > 100 µM (inactive) | > 100 µM (inactive) | > 100 µM (inactive) | > 100 µM (inactive)
[N-]=[N+]=Nc1c(C=O)c(=O)n2c3c(cccc13)CCC2 | 20.8 µM (inactive) | 2.94 µM (inactive) | 0.778 µM (active) | 2.3 µM (inactive) | 11.1 µM (inactive) | 16.9 µM (inactive) | 3.15 µM (inactive) | 3.27 µM | 10 µM (inactive) | 11.9 µM (inactive) | 2.82 µM (inactive) | 2.28 µM (inactive) | 7.24 µM (inactive) | 3.03 µM (inactive) | 2.87 µM (inactive) | 14.4 µM (inactive) | 13.8 µM (inactive) | 19 µM (inactive) | 20 µM (inactive) | 4.53 µM (inactive)
COc1cc(C)cc2c1C(=O)C(NC(C)=O)=CC2=O | > 100 µM (inactive) | > 100 µM (inactive) | 34.3 µM (inactive) | > 100 µM (inactive) | > 100 µM (inactive) | > 100 µM (inactive) | > 100 µM (inactive) | > 100 µM | > 100 µM (inactive) | > 100 µM (inactive) | 43.1 µM (inactive) | > 100 µM (inactive) | > 100 µM (inactive) | > 100 µM (inactive) | > 100 µM (inactive) | > 100 µM (inactive) | > 100 µM (inactive) | > 100 µM (inactive) | > 100 µM (inactive) | 57.4 µM (inactive)
O=c1cnn(C2OC(CO)C(O)C2O)c(=S)[nH]1 (stereo not given) | 2.15 µM (inactive) | 2.55 µM (inactive) | 2.52 µM (inactive) | 54.1 µM (inactive) | > 100 µM (inactive) | > 87.1 µM (inactive) | 1.67 µM (inactive) | 2.09 µM | 13.5 µM (inactive) | 28.7 µM (inactive) | 0.589 µM (active) | > 54.2 µM (inactive) | > 78.3 µM (inactive) | 10.6 µM (inactive) | 0.993 µM (active) | 11.1 µM (inactive) | > 55.5 µM (inactive) | > 100 µM (inactive) | 43.1 µM (inactive) | > 100 µM (inactive)
